Experimental data taken from patent US20250064889A1, “TRPV6 INHIBITORS AND COMBINATION THERAPIES FOR TREATING CANCERS” (Soricimed Biopharma Inc., priority 2017, published 2025).

Experiments:
[1] = test system: Human total Bel-2; test: Human Total Bcl-2 sandwich ELISA on BxPC-3 cells; assay type: cell-based; conditions: 500 μM, at 96 hrs, p<0.05
Experimental: (§1) • Drug Dosing: Cells were plated at 5×10^5 cells/well in a 6-well plate. After 24 hrs incubation the BxPC-3 cells were dosed daily with NT (s.f. PBS) or 500 μM SOR-C13 (prepared fresh daily in f.s. PBS) for 72 hrs. Once dosed cells were incubated at 37° C./5% CO2 for the duration dosing period of 72 hrs. Dosing was repeated every 24 hrs for 72 hrs. Every 24 hrs protein lysates (RIPA) were prepared from cells and de-salted (7 kDa MWCO, Zebra spin columns, Fisher). Bel-2 assay was a 96 hrs dosing parameter. • Plate Assay (Calnr): Cellular Calcineurin concentration was monitored at 620 nm using the Calcineurin Cellular (PP2B) Phosphate Activity Assay kit (EMD Millipore). Results were interpolated from standard curve for amount of Phosphate released. • Plate Assay (Bcl-2): Human total Bel-2 concentration was performed using DuoSet® Human Total BcL-2 sandwich ELISA (R&D Systems). Bel-2 concentration for BxPC-3 cells was extrapolated from (4-PL) standard curve Bel-2.

[2] = test system: calcineurin; test: Calcineurin Cellular (PP2B) Phosphate Activity Assay on BxPC-3 cell lysates; assay type: cell-based; conditions: 500 μM, at 24 hrs and 72 hrs, p<0.05
Experimental: as §1

[3] = test system: MMP-9; test: MMP-9 Cytoglow ELISA on BxPC-3 cells; assay type: cell-based; conditions: BxPC-3 cells treated for 96 hr daily at 100 and 500 μM, p<0.05
Experimental: • Drug Dosing: BxPC-3 cells were plated at 2×10^4 cells/well in a 96-well plate and cultured overnight. Cells were dosed daily with NT (s.f. PBS) 100, 500 μM SOR-C13 (prepared fresh daily in f.s. PBS) for 96 hrs. Dosing was repeated every 24 hrs for 96 hrs. • Plate Assay: MMP-9 concentration was monitored using the MMP-9 Cytoglow ELISA (Assay Biotech). Cells were fixed to plate, and ELISA was performed, MMP-9 expression was calculated as % of No Treatment control.

[4] = test system: NFAT signalling molecular pathway targets (Calnr, Bel-2, ATX, MMP-9 and NFAT); test: In vitro dosing experiments, NFAT signalling molecular pathway targets (summary); assay type: cell-based
Experimental: (§2) • Transfection: T-47D cells were plated at 1×10^4 cells/well in a 96-well plate and cultured overnight. Cells were transfected for 24 hrs at 37° C./5% CO2 using Liptofectamine 3000 (0.3 μL/well)/P3000 Reagent (1 μL/well) in Opti-MEM medium and with a 500 ng of NFAT dual reporter plasmid (Cignal NFAT Reporter, Qiagen). • Drug Dosing: After transfection the T-47D cells were dosed daily with NT (s.f. PBS) or 500 μM SOR-C13 (prepared fresh daily in f.s. PBS) for 72 hrs. Once dosed the 96-well plate was incubated at 37° C./5% CO2 for the duration dosing period of 72 hrs. Dosing was repeated every 24 hrs for 72 hrs. • Plate Assay: Luminescence was monitored using Dual-Glo® Luciferase assay (Promega) to measure changes in NFAT luminescence expression (related to pKC pathway) between PBS and SOR-C13 treated T-47D cells. Firefly and Renilla Luminescence was measured using a molecular devices microplate reader.
• Drug Dosing: Cells were plated at 5×10^5 cells/well in a 6-well plate. After 24 hrs incubation the BxPC-3 cells were dosed daily with NT (s.f. PBS) or 500 μM SOR-C13 (prepared fresh daily in f.s. PBS) for 72 hrs. […] Bel-2 assay was a 96 hrs dosing parameter. • Plate Assay (Calnr): Cellular Calcineurin concentration was monitored at 620 nm using the Calcineurin Cellular (PP2B) Phosphate Activity Assay kit (EMD Millipore). […]

[5] = test system: NFAT activation; test: In vitro NFAT analysis: NFAT dual reporter luciferase assay in T-47D cells; assay type: cell-based; conditions: 500 μM daily for 72 hrs, p<0.05
Experimental: as §2

[6] = test system: BxPC-3 pancreatic cancer cells; test: Combination with immune checkpoint modulator: BxPC-3 cells co-incubated with activated Jurkat cells, viability and IL-2; assay type: cell-based; conditions: BxPC-3 pre-treated with INF-γ, 100 μM SOR-C13 48 hours
Experimental: Experiments are performed to evaluate the effect of TRPV6 inhibitors in combination with immune checkpoint modulators such as PD-1 inhibitors (see Yang et al., Invest Ophthalmol Vis Sci. 2008 June; 49(6): 2518-2525; and FIG. 2). Briefly, BxPC-3 pancreatic cancer cells are treated with INF-γ for 48 hours to induce the cell surface expression of PD-L1. Once activated, sets of BxPC-3 cells are treated with 0 or 100 μM of SOR-C13 (KEFLHPSKVDLPR; SEQ ID NO:2) for 48 hours. Immune checkpoint modulatory test agents such as pembrolizumab (KEYTRUDA*) are added at various concentrations, along with activated Jurkat cells (i.e., cytotoxic T-cells), and co-incubated with the BxPC-3 cells for 48 hours.
Viability and IL-2 production is determined 48 hours later. Activated Jurkat cells produce IL-2 which mediates the killing of BxPC-3 cells. Cell death is quantified using the Cell Titre Glow Cellular Viability Assay. The effect of SOR-C13 on IL-2 mediated killing of BxPC-3 cells is compared to IL-2 mediated killing of BxPC-3 cells in the absence of SOR-C13.

[7] = test system: T-47D breast cancer cell lines; test: RT-qPCR TaqMan Array, 187 gene panel, T-47D cells treated with SOR-C13; assay type: cell-based; conditions: 500 μM for 120 hrs, genes with >1.5 fold change
Experimental: • mRNA Expression: The expression NFAT/Ca^2+ related genes mRNA levels were determined in 6 Cancer Cell lines treated with SOR-C13 (500 μM) for 120 hrs using a qPCR TaqMan® Array panel consisting of 187 genes (ThermoFisher). Cells were harvested with lysis buffer from the PureLink RNA Mini Kit and then RNA isolation carried out as per manufacturers instructions (ThermoFisher Scientific). RNA was quantified using the Qubit Fluorometer. Reverse Transcription was performed and cDNA created using SuperScript™ IV VILO Master Mix with ezDNase Enzyme (ThermoFisher Scientific). Each port of the Custom TaqMan® Array Card was loaded with 500 ng of cDNA and 1× TaqMan Fast Advanced Master Mix. RT-qPCR was performed using the Quantstudio™ 7Flex and analysis performed by ThermoFisher cloud software using GUSB and HRPT1 as endogenous controls.

[8] = Fu et al. 2017; cited from earlier work

KEFLHPSKVDLPR [SOR-C13]
Bel-2 expression [1]: significant decrease | calcineurin activity [2]: inhibition | MMP-9 expression, % from PBS control [3]: reduction | NFAT signalling molecular pathway targets (Calnr, Bel-2, ATX, MMP-9 and NFAT) with treatment [4]: decreases | NFAT activation, SOR-C13-treated cells vs. PBS [5]: significant difference | anti-cancer activity of immune checkpoint modulators such as pembrolizumab on addition of SOR-C13 [6]: increases | NFATC1, MMP2, GSK3 and RCAN1 mRNA expression (Calcineurin/NFAT pathway) [7]: affected | anti-tumour activity [8]: promising anti-tumour activity | tolerability and safety profile [8]: good tolerability and manageable safety profile
